In US10813891B2, “Method of inhibiting chronification of pain” (priority 2011, dated 2020):
“Also recorded” adds a separate entry of the source. Read-outs that look alike come from different tables or passages of the source.

How the values were obtained:
CCI-SN rats [1] = settings: rat, in vivo; cited from earlier work
CCI-ION rats [2] = settings: cited from earlier work
CCI-SN rats [3] = type: in vivo, rat; settings: rat, in vivo
Protocol: (§1) Male Sprague-Dawley rats (Charles River Laboratories, L'Arbresle, France), weighing 150-200 g on arrival, were used. Animals were maintained under controlled environmental conditions (22±1° C., 60% relative humidity, 12 h/12 h light/dark cycle, food and water ad libitum) starting from reception in the laboratory, for at least 1 week before any intervention or treatment and thereafter, until euthanasia.
Rats were anaesthetized as above and the common sciatic nerve was exposed. Using a dissection microscope (2× magnification), four chromic catgut (5-0) ligations were tied loosely with about 1 mm spacing, proximally to the sciatic trifurcation (Bennett and Xie, 1988). Finally, the skin and muscle were sewed using silk sutures (4-0). In sham-operated animals, the same surgery was performed, but the nerve was not ligated.
(§2) Tapentadol (1, 3 and 10 mg/kg i.p.), reboxetine (10 mg/kg i.p.), morphine (1 and 3 mg/kg s.c.) or their vehicle (0.9% NaCl) were injected acutely 14 days after surgery, when allodynia/hyperalgesia reached a plateau in both CCI-SN and CCI-ION rats. Behavioral tests were performed at various times for up to 4 h after injection. In drug association procedure, reboxetine or saline was administered 15 min before morphine or saline.
(§3) Subchronic treatment consisted of twice daily injections of tapentadol (10 mg/kg, i.p. at 10:00 am and 6:00 pm) or saline for 4 days starting on the 15th day after nerve ligation in both CCI-ION and CCI-SN rats. Animals were further injected with tapentadol (10 mg/kg i.p.) or saline at 10:00 am the following day (19th day post-surgery), and assessment of allodynia with von Frey filament tests (see below) was made at various times up to 4 hours after this injection. All rats were killed by decapitation 4 hours after the last injection for real-time qRT-PCR determinations of specific mRNAs in ganglia and central tissues (see below).
Before testing, each rat was habituated for 2 h as above, and mechanical sensitivity was then determined with a graded series of […] von Frey filaments, that produced a bending force of 6, 8, 10, 12, 15, 26, and 60 g, respectively. The stimuli were applied within the SN territory (lateral part of the hind paw sole). Each filament was tested three times on the nerve-injured side in increasing order starting with the filament producing the lowest force. As for the CCI-ION rats, the von Frey filaments were applied at least 3 seconds after the rat had returned to its initial resting state. The minimal force filament for which animals presented either a brisk paw withdrawal and/or an escape attempt in response to at least 2 out of the 3 stimulations allowed determination of the mechanical response threshold. The 60.00 g filament was chosen as the cutoff threshold to inhibit any tissue injury.
A—Two weeks after unilateral chronic constriction injury to the sciatic nerve, pressure threshold values (as g) to trigger nocifensive responses to von Frey filaments application onto the plantar surface of ipsilateral hindpaw were determined at various times after acute injection of tapentadol (1, 3 or 10 mg/kg, i.p.) or saline. B—On day 15 (D on abscissa) after nerve ligation, rats were treated subchronically with tapentadol (10 mg/kg, i.p., twice daily, at 10:00 AM and 6:00 PM) or saline for four days. On the following day (day 19 after surgery), both tapentadol- and saline-pretreated CCI-SN rats were injected with tapentadol (10 mg/kg, i.p.; 0 on abscissa) and then subjected to von Frey filaments' test applied to ipsilateral hindpaw for determination of pressure threshold values (as g) at various times thereafter.

CCI-ION rats [4] = type: in vivo, rat; settings: rat, in vivo
Protocol: as §1
Rats were anaesthetized with sodium pentobarbital (50 mg/kg i.p.). Unilateral CCI-ION was performed under direct visual control using a Zeiss microscope (10-25×). Briefly, the head was fixed in a Horsley-Clarke stereotaxic frame and a midline scalp incision was made, exposing skull and nasal bone. The edge of the orbit, formed by the maxillary, frontal, lacrimal, and zygomatic bones, was dissected free. The orbital contents were then gently deflected to give access to the infraorbital nerve which was dissected free at its most rostral extent in the orbital cavity, just caudal to the infraorbital foramen. Only 5 mm of the nerve could be freed, providing the space for placement of two chromic catgut (5-0) ligations tied loosely (with about 2 mm spacing) around it. […] Finally, scalp incision was closed using silk sutures (4-0). In sham-operated rats, the ION was exposed using the same procedure, but was not ligated.
as §2, §3
Rats were placed individually in small (35×20×15 cm) plastic cages for a 2 h habituation period. Before any stimulation session, rats freely explored the observation cage and the testing environments for 2 h. Then mechanical sensitivity was determined with a graded series of […] von Frey filaments (Bioseb, Bordeaux, France). The filaments produced a bending force of 0.40, 0.60, 1.00, 2.00, 4.00, 6.00, 8.00, 10.00 and 12.00 g, respectively. The stimuli were applied within the ION territory (vibrissae pad) three times on the nerve-injured side and then on the contralateral side for a total of 6 applications of each filament per rat, always beginning with the filament producing the lowest force. The von Frey filaments were applied at least 3 seconds after the rat had returned to its initial resting state. For each session, the complete series of von Frey filaments was tested in increasing force order. […] The latter responses represented the highest scores in the rank-ordered response scoring system initially described by Vos et al. (1994). Under our own conditions, the mechanical response threshold was determined as the minimal force filament causing at least one among these responses to at least 2 out of the 3 applications in vibrissae territory. […] To avoid nonspecific responses, only these rats were included in the study.

[5] = tested on: mice hindpaw after incision; settings: mouse, in vivo; cited from earlier work

Structure (SMILES): NC1=N[C@H](O)[C@H]2[C@H]3O[C@]4(O)O[C@@H]([C@@H](O)[C@@]2(N1)[C@@H]4O)[C@]3(O)CO [tetrodotoxin]
- allodynia/hyperalgesia in the hindpaw (CCI-SN rats [1]): reversed allodynia/hyperalgesia in the hindpaw
- allodynia in the vibrissae territory (CCI-ION rats [2]; rat, in vivo): inactive against allodynia in the vibrissae territory

Structure (SMILES): CN1CC[C@]23c4c5ccc(O)c4O[C@H]2[C@@H](O)C=C[C@H]3[C@H]1C5 [morphine]
- allodynia/hyperalgesia in the hindpaw (CCI-SN rats [1]): reversed allodynia/hyperalgesia in the hindpaw
- effect on CCI-SN-induced mechanical allodynia (CCI-SN rats [3]): fully reversed CCI-SN-induced mechanical allodynia; also recorded: allodynia was not completely reversed
- persistence of reversal of allodynia (CCI-SN rats [3]): at least one hour
- pressure threshold values, either drug alone (CCI-SN rats [3]): only discrete increases in pressure threshold values
- maximum increase in pressure threshold value, as % of that in healthy intact rats (CCI-ION rats [4]): 20%
- allodynia in the vibrissae territory (CCI-ION rats [2]; rat, in vivo): inactive against allodynia in the vibrissae territory
- cephalic neuropathic pain, each drug alone (CCI-ION rats [2]; rat, in vivo): inactive
- incision-induced hyperalgesia [5]: does not inhibit incision-induced hyperalgesia; also recorded: hyperalgesia is even maintained

Structure (SMILES): NC1CCN(O)C1=O (single isomer, unassigned; (+)) [(+)-HA966]
- cephalic neuropathic pain, each drug alone (CCI-ION rats [2]; each drug alone): inactive

Structure (SMILES): CCOc1ccccc1OC(c1ccccc1)C1CNCCO1 (stereo not shown) [reboxetine]
- pressure threshold values, either drug alone (CCI-SN rats [3]): only discrete increases in pressure threshold values
- anti-allodynic effect alone (CCI-ION rats [4]): completely inactive on its own
